Assay results from publication PMC6594919 (Pharmacology Research & Perspectives, 2019).

Legend:
[1] = Unbound drug concentration in the external medium by ultrafiltration (Centrifree) and immunoassay; conditions: mean (range)
[2] = In vitro microdialysis with the intravenous EIRUS CVC catheter: drug concentrations in medium and dialysate, relative recovery (RRT, RRU); conditions: perfusate NaCl 0.9% 5 μL/min, 37°C; for Concentration dialysate: EIRUS catheter 5000 Da cutoff, immunoassay, mean (range)
[3] = Human plasma, immunoassay, triplicate (gentamicin marked **)
[4] = Human serum, immunoassay, triplicate (gentamicin repeated twice)
[5] = Medium 5: 0.2 mmol/L phosphate buffer with albumin 40 g/L in NaCl 0.9% pH 6.9, immunoassay, triplicate

Compound | Unbound drug concentration medium [1, 3] | Unbound drug concentration medium [1, 4] | Unbound drug concentration medium [1, 5] | Concentration dialysate ([2]; Human plasma, triplicate (gentamicin marked **)) | Concentration dialysate ([2]; Human serum, triplicate (gentamicin repeated twice)) | Concentration dialysate ([2]; Medium 3: 0.2 mmol/L phosphate buffer pH 7.4, triplicate) | Concentration dialysate ([2]; Medium 5: 0.2 mmol/L phosphate buffer with albumin 40 g/L in NaCl 0.9% pH 6.9, triplicate) | Unbound drug concentration medium ([1]; Medium 4: 0.2 mmol/L phosphate buffer with albumin 40 g/L pH 7.1, immunoassay, triplicate) | Unbound drug concentration medium ([1]; Medium 6: 0.2 mmol/L phosphate buffer with albumin 40 g/L in NaCl 1.8%, immunoassay, repeated twice) | Time after which a constant (stable) recovery was observed ([2]; EIRUS catheter, t-test: significant difference prior to 60 minutes, none after) [min]
CNC(C)C1CCC(N)C(OC2C(N)CC(N)C(OC3OCC(C)(O)C(NC)C3O)C2O)O1 (stereo not shown) [Gentamicin] | 8.9 (7.7‐10.9) mg/L | 7.7 (6.6‐8.9) mg/L | 7.3 (7.2‐7.4) mg/L | 8.4 (7.1‐9.6) mg/L | 7.1 (5.8‐8.3) mg/L | 21.5 (21.1‐21.8) mg/L | 7.5 (7.4‐7.8) mg/L |  |  | 
CN[C@H](CC(C)C)C(=O)N[C@H]1C(=O)N[C@@H](CC(N)=O)C(=O)N[C@H]2C(=O)N[C@H]3C(=O)N[C@H](C(=O)N[C@H](C(=O)O)c4cc(O)cc(O)c4-c4cc3ccc4O)[C@H](O)c3ccc(c(Cl)c3)Oc3cc2cc(c3O[C@@H]2O[C@H](CO)[C@@H](O)[C@H](O)[C@H]2O[C@H]2C[C@](C)(N)[C@H](O)[C@H](C)O2)Oc2ccc(cc2Cl)[C@H]1O [Vancomycin] | 13.2 (10.0‐14.9) mg/L | 13.2 (13.2‐13.2) mg/L | 10.3 (10.3‐10.4) mg/L |  |  |  |  | 6.7 (6.6‐7.4) mg/L | 13.3 (13.3‐13.3) mg/L | 60
